# Values quoted from earlier work as cited in PMC9851200, “Multiparameter phenotypic screening for endogenous TFEB and TFE3 translocation identifies novel chemical series modulating lysosome function” (Autophagy, 2022).
# How the values were obtained:
# Set-up in all cases: method as in original PKIS2 published data
# [1] = target: T1, kinases (KINOMEscan panel) (Homo sapiens, UniProt Q12866); details: kinase MERTK; Published KINOMEscan; ref original PKIS2 published data; cited from earlier work
# T1 sequence (Q12866 21-999): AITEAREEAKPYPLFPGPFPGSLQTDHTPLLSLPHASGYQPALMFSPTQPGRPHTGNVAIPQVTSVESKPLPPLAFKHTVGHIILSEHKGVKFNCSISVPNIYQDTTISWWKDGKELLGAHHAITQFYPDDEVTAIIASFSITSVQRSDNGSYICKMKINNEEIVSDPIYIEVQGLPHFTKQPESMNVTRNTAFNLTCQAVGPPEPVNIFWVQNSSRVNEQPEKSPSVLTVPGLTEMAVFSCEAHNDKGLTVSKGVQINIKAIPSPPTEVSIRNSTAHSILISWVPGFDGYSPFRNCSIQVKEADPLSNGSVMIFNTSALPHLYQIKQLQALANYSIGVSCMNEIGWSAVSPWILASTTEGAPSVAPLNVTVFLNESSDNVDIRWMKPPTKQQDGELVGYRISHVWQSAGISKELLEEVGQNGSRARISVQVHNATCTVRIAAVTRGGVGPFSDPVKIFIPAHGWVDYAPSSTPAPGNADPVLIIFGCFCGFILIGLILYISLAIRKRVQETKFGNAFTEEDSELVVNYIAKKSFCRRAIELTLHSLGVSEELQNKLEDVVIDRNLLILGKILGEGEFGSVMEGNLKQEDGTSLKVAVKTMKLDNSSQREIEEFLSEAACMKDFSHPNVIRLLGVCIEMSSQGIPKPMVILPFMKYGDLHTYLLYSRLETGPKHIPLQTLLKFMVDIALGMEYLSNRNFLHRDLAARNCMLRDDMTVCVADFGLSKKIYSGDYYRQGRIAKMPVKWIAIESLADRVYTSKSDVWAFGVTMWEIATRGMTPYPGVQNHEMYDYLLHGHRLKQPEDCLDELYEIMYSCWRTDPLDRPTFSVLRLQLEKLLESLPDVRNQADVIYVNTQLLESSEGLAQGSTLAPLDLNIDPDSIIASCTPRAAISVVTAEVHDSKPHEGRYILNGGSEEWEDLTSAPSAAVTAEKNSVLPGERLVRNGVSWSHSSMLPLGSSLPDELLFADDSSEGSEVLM
# [2] = target: kinases (KINOMEscan panel) (Homo sapiens, UniProt O43353); details: RIPK2; Published KINOMEscan; ref original PKIS2 published data; cited from earlier work
# [3] = target: T2, kinases (KINOMEscan panel) (Homo sapiens, UniProt P52333); details: kinase JAK3(JH1domain-catalytic); Published KINOMEscan; ref original PKIS2 published data; cited from earlier work
# T2 sequence (P52333 1-1124): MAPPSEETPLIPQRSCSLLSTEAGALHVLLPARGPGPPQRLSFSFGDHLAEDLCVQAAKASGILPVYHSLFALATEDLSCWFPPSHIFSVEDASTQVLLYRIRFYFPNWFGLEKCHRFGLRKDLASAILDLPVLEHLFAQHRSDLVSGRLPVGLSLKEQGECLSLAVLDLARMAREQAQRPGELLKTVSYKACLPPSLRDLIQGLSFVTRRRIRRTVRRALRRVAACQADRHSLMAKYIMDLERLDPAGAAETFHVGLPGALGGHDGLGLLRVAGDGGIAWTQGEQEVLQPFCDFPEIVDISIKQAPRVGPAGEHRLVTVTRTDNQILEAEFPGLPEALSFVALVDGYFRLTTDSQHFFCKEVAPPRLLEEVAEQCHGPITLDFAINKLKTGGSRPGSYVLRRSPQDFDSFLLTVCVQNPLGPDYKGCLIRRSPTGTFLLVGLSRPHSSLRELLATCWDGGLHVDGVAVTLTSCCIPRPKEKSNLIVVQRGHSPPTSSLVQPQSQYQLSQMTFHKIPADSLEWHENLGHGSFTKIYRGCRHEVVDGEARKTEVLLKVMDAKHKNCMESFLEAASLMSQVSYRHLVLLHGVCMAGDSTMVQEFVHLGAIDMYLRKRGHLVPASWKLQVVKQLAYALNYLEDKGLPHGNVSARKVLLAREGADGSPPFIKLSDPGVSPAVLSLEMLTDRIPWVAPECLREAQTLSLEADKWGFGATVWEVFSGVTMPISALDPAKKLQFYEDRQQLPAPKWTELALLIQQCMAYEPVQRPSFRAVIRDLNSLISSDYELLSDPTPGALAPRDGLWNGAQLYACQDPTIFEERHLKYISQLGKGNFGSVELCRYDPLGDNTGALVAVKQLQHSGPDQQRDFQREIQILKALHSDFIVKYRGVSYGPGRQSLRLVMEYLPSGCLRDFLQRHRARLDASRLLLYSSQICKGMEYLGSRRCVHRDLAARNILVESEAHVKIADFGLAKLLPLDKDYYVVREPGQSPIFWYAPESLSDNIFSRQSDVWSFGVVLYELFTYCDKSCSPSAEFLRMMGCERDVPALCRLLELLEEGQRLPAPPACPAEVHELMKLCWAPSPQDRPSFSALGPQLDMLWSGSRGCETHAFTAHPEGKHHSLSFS
# [4] = target: T3, kinases (KINOMEscan panel) (Homo sapiens, UniProt Q14164); details: cited from earlier work
# T3 sequence (Q14164 1-716): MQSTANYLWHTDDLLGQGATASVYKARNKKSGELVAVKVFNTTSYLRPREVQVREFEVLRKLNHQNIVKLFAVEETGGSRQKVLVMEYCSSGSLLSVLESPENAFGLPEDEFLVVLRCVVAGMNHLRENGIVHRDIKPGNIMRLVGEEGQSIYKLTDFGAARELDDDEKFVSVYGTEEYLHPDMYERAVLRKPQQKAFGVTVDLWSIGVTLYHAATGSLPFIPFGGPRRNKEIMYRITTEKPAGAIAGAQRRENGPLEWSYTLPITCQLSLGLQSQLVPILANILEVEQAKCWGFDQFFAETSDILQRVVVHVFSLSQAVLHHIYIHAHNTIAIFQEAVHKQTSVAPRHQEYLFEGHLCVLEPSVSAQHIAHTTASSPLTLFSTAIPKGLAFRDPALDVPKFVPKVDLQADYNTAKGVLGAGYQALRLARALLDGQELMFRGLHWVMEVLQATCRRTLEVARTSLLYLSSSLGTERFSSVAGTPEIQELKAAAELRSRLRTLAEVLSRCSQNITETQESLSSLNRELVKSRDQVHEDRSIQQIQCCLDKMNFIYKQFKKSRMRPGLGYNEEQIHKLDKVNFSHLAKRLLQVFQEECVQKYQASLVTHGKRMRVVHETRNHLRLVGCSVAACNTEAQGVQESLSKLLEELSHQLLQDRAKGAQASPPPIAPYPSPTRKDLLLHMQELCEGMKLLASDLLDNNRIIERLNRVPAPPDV
# kinases (KINOMEscan panel) (Homo sapiens, UniProt O43353), sequence (O43353 whole entry): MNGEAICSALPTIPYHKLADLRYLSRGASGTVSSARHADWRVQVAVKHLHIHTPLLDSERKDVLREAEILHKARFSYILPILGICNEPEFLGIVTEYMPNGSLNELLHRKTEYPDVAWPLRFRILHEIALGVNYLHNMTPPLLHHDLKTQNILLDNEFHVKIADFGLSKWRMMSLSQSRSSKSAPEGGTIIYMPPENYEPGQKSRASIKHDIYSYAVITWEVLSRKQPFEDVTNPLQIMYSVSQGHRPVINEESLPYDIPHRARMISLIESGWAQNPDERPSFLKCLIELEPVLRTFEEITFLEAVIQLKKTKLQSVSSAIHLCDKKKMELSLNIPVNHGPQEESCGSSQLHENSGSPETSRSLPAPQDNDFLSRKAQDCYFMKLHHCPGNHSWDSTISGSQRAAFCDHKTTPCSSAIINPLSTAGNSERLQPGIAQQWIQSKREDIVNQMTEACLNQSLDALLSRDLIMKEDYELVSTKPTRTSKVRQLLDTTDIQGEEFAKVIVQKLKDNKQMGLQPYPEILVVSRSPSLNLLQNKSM
compound,measurement,setting,value
Cc1cccc(-c2nc(Nc3ccncc3)c3ccccc3n2)n1 [NK215],KINOMEscan MERTK,[1],9
same,KINOMEscan RIPK2,[2],71
same,KINOMEscan JAK3(JH1domain-catalytic),[3],0
same,KINOMEscan IKBKE/IKK-epsilon,[4],0
